Data as given in US20090181910A1, “METHOD OF PREVENTION AND ALLEVIATION OF TOXICITY BY MODULATION OF IRF3” (priority 2006, published 2009).
Entries after “also recorded” stand apart in the source; their conditions may differ. Where a SMILES comes first, the peptide text is derived from it. The star is where a group is joined. Cbz = O=C(OCc1ccccc1)*

Columns and labels:
Oatp2 = test system: Oatp2; parameters: species or system mice; conditions: mouse
UGT1A6 [1] = format: cell-based, human; conditions: Huh7 cells with RXRα silenced by siRNA; ASA 20 μg/ml 24 hours
UGT1A6 [2] = test system: UGT1A6; parameters: species or system mice; conditions: mouse
Cyp3A11 [3] = conditions: mouse
RXRα [4] = test system: RXRα; parameters: species or system mice; conditions: mouse, in vivo
[5] = mouse, in vivo
[6] = mouse, in vivo; remark: listed apart in the source
RXRα [7] = assay: BMM anti-RXRα Western blot; format: cell-based, Murine; conditions: for RXRα protein loss following polyI:C treatment: LG268 10 nM or GW3965 1 μM added to polyI:C 1 μg/ml, 24 hrs, FIG. 8d
[8] = mouse, in vivo; remark: listed apart in the source
[9] = addition of PCN
[10] = H&E liver histology in APAP hepatotoxicity; conditions: pretreatment with PCN or ethanol, lower levels of APAP (175 mg/kg); FIG. 3B
[11] = Serum ALT in APAP hepatotoxicity
[12] = Survival following APAP treatment; format: in vivo, mice; conditions: PCN 75 mg/kg i.p. 24 h before APAP 175 mg/kg; FIG. 4C
Protocol: FIG. 4: Percentage survival following APAP treatment with or without polyI:C. (A) Wildtype (n=8) fasted and were treated with 0.1% NaCl or polyI:C (100 μg) intravenous (i.v.) 24 hours prior to treatment with APAP (600 mg/kg) by intraperitoneal (i.p.) injection. (B) Wildtype and IRF3−/− (n=6-8) fasted and were treated with 0.1% NaCl or polyI:C (100 μg) intravenous (i.v.) 24 hours prior to treatment with APAP (600 mg/kg) by intraperitoneal (i.p.) injection. (C) Wildtype mice (n=6-8) fasted and were treated with 0.1% NaCl or polyI:C (100 μg) intravenous (i.v.) and PCN (75 mg/kg) intraperitoneal (i.p.) 24 hours prior to treatment with APAP (175 mg/kg) by intraperitoneal (i.p.) injection.
Age and sex matched 6-9 week old mice were used for all experiments. C57/B16 mice were obtained from Jackson Laboratory. IRF3^−/− mice were obtained from Dr. T. Taniguchi. For APAP hepatotoxicity analysis, mice fasted for […] and then administered Vehicle (0.1% NaCl) or APAP (175-600 mg/kg) by intraperitoneal injection (i.p.). For serum and histological studies, mice were sacrificed at 6-7 hours post injection and serum and liver samples were retrieved. For survival studies, mice were studied for up to 5 days. For polyI:C studies, mice were also treated with 0.1% NaCl or polyI:C (100 μg) intravenous (i.v.) 12-24 hours prior to APAP treatment. To study the effects of PCN on APAP treatment, mice were treated with PCN (75 mg/kg) or control (1% DMSO, corn oil) by intraperitoneal (i.p.) 12-24 hours prior to APAP treatment. To study the effects of ethanol (EtOH) on APAP treatment, mice were given 20% EtOH in water ad libidum for 5 days prior to APAP therapy. PolyI:C treatment for these experiments occurred at Day 3 and Day 5. Serum alanine aminotransferase (ALT) levels were determined using manufacturer's protocol (TECO Diagnostics). For H&E staining, liver samples were fixed in formalin for 48 hours. H&E stainings were done by UCLA Tissue Procurement Core Laboratory (TPCL).

CRBPII = assay: RAW 264.7 Q-PCR: CRBPII; format: cell-based, murine; conditions: overexpression of Hes1 in RAW 264.7 cells; FIG. 10b
ABCA1 = assay: RAW 264.7 Q-PCR: ABCA1; format: cell-based, murine; conditions: overexpression of Hes1 in RAW 264.7 cells; FIG. 10b
Cyp3A11 [13] = assay: Liver RNA Q-PCR, polyI:C/APAP-treated mice: Cyp3A11; conditions: APAP 350 mg/kg i.p., 6 h
[14] = in adults; cited from earlier work
Cyp1A2 = assay: Liver RNA Q-PCR, polyI:C/APAP-treated mice: Cyp1A2; conditions: APAP 350 mg/kg i.p., 6 h
RXRα [15] = format: cell-based, Murine

SMILES: CC(=O)Oc1ccccc1C(=O)O [ASA, acetylsalicylic acid]
- Oatp2 mRNA in vivo (Oatp2): not other PXR/RXR genes such as Oatp2
- UGT1A6 induction by ASA (UGT1A6 [1]): impaired
- UGT1A6 mRNA in vivo (UGT1A6 [2]): potently increased
- CYP3A11 mRNA in vivo (Cyp3A11 [3]): potently increased
- RXRα protein in liver (RXRα [4]): significant loss of RXRα protein
- hepatotoxicity (liver necrosis or fatty degeneration) [5]: caused severe hepatotoxicity as evidenced by liver necrosis or fatty degeneration
- hepatotoxicity from polyI:C plus ASA in knockout mice [5]: did not occur in IRF3^−/− mice, but did occur in IFNAR^−/− mice
- hepatotoxicity, agent alone [5]: did not cause significant hepatotoxicity
- blood glucose levels [6]: significantly decreased
- serum ALT [6]: increased
- serum ammonia [6]: increased
- total bilirubin levels [6]: increased

SMILES: O=C(O)Cc1cccc(OCCCN(Cc2cccc(C(F)(F)F)c2Cl)CC(c2ccccc2)c2ccccc2)c1 [GW3965]
- RXRα protein loss following polyI:C treatment (RXRα [7]): more obvious

SMILES: CC(=O)[C@H]1[C@H](C#N)C[C@H]2[C@@H]3CC=C4C[C@@H](O)CC[C@]4(C)[C@H]3CC[C@@]21C [PCN, Pregnenolone 16alpha-carbonitrile]
- LCA-induced serum ALT with PCN co-treatment [8]: reduced
- protection from VSV plus LCA-induced hepatotoxicity [9]: could not be blocked
- Oatp2 mRNA in vivo (Oatp2): not other PXR/RXR genes such as Oatp2
- UGT1A6 mRNA in vivo (UGT1A6 [2]): potently increased
- cell necrosis (H&E) [10]: results in severe necrosis similar to higher doses of APAP
- CYP3A11 mRNA in vivo (Cyp3A11 [3]): potently increased
- hepatotoxicity as measured by serum ALT ([11]; PCN 75 mg/kg i.p. 24 h before APAP 175 mg/kg, FIG. 2B): caused less toxic levels of APAP to result in severe hepatotoxicity
- sensitivity to APAP (survival) [12]: increases sensitivity to lower levels of APAP
- RXRα protein expression in liver (RXRα [4]): further loss of RXRα protein expression; also recorded: potent loss of RXRα protein

SMILES: CCO [ethanol, Ethanol]
- cell necrosis (H&E) [10]: results in severe necrosis similar to higher doses of APAP
- sensitivity to APAP (serum ALT) ([11]; 20% EtOH ad libidum 5 days, APAP 175 mg/kg, FIG. 2C): results in similar sensitivity to APAP as PCN treatment

SMILES: C[C@H](CCC(=O)O)[C@H]1CC[C@H]2[C@@H]3CC[C@@H]4C[C@H](O)CC[C@]4(C)[C@H]3CC[C@]12C [LCA, Lithocholic acid]
- serum alanine aminotransferase (ALT) levels [8]: significant elevation of serum alanine aminotransferase (ALT) levels

SMILES: CC1=C(/C=C/C(C)=C\C=C\C(C)=C\C(=O)O)C(C)(C)CCC1 [9cRA, 9-cis retinoic acid]
- induction of CRBPII by 9cRA (CRBPII): prevents
- induction of ABCA1 by 9cRA (ABCA1): prevents

SMILES: CC(C)C[C@@H](C=O)NC(=O)[C@H](CC(C)C)NC(=O)[C@H](CC(C)C)NC(=O)OCc1ccccc1 [MG132] (Cbz-Leu-Leu-Leu-aldehyde)
- RXRα protein loss after 9cRA and polyI:C co-stimulation (RXRα [7]; MG132 10 μM, BMMs, FIG. 8f): prevented loss of RXRα protein

SMILES: Cc1cc2c(cc1C1(c3ccc(C(=O)O)cn3)CC1)C(C)(C)CCC2(C)C [LG268]
- RXRα protein loss following polyI:C treatment (RXRα [7]): more obvious

SMILES: CC(=O)Nc1ccc(O)cc1 [APAP, Acetaminophen]
- induction of Cyp3A11 by APAP (Cyp3A11 [13]): does not
- single acute toxic ingestion [14]: approximately 7 g
- induction of Cyp1A2 by APAP (Cyp1A2): does not

SMILES: CC(/C=C/C(=O)NO)=C\[C@@H](C)C(=O)c1ccc(N(C)C)cc1 [TSA, trichostatin A]
- effect on polyI:C repression of RXRα mRNA (RXRα [15]): prevented polyI:C repression of RXRα, and allowed polyI:C to induce RXRα
